Results published in US20220089609A1, “SUBSTITUTED QUINAZOLINONE DERIVATIVES AND THEIR USE AS POSITIVE ALLOSTERIC MODULATORS OF MGLUR4” (DOMAIN THERAPEUTICS, priority 2018, published 2022).
Structures can show the parent of a compound that is named as a salt.

Key:
human mGluR4 (hmGluR4) = target: T1, human mGluR4 (hmGluR4) (Homo sapiens, UniProt Q14833); assay: Calcium assay EC50 determination, positive allosteric modulator activity on hmGluR4 transiently over-expressed in HEK-293 cells; type: cell-based; details: PAM mode with EC20 glutamate; hmGluR4 in HEK-293 cells; intracellular calcium (Fluo4AM); read-out: mGluR4 positive allosteric modulator activity, half maximal effective concentration (EC50)
T1 construct: expressed in transfected cells; host or cells: HEK-293 cells, transient co-transfection by electroporation
Summary of the method: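 HEK-293 cells transiently co-transfected with hmGluR4, chimeric G protein and glutamate transporters; Fluo4AM calcium read (ex 485/em 525 nm) on FLIPR Tetra. Compound alone 10 min for agonism, then EC20 glutamate with 3 min recording for PAM activity, versus buffer or EC20 glutamate basal.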

T1 sequence (Q14833 33-912): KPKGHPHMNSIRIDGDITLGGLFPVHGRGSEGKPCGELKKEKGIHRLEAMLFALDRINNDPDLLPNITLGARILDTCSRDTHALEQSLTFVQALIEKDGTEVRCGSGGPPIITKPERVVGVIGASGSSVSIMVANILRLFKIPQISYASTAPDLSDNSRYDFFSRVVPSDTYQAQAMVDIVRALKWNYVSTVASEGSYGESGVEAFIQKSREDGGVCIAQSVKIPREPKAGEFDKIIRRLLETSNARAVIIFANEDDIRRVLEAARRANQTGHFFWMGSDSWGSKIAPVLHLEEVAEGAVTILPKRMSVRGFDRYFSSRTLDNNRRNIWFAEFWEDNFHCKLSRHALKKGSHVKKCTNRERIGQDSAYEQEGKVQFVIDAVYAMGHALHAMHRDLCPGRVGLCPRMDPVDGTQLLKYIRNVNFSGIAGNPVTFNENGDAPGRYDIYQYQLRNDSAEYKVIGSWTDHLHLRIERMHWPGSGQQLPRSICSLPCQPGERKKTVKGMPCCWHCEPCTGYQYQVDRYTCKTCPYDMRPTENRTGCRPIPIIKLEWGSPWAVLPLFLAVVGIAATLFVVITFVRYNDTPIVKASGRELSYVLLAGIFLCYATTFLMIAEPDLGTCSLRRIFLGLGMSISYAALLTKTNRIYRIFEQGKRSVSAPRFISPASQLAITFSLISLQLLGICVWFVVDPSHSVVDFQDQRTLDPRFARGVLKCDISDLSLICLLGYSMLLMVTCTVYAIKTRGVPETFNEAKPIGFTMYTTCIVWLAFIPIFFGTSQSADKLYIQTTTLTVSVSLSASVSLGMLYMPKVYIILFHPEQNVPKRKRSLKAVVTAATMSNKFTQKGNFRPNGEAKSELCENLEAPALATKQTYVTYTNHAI

SMILES | EC50 (human mGluR4 (hmGluR4)) [nM] | melting point [°C]
Cc1cc(CC(=O)N2CCOCC2)cc2c(=O)[nH]c(-c3cc4cccn4cn3)nc12 [Compound 134, 8-Methyl-6-(2-morpholino-2-oxo-ethyl)-2-pyrrolo[1,2-c]pyrimidin-3-yl-3H-quinazolin-4-one] | ≤ 100 | 254 to 256
CC(=O)N1CCC(COc2ccc3nc(-c4cc5ccsc5cn4)[nH]c(=O)c3c2)CC1 [Compound 47, 6-(1-Acetyl-piperidin-4-ylmethoxy)-2-thieno[2,3-c]pyridin-5-yl-3H-quinazolin-4-one] | 100 to 1000 | > 250
Cc1cc(OC2CCC(=O)N(C)C2)cc2c(=O)[nH]c(-c3cc4sccc4cn3)nc12 (stereo not shown) [Compound 129, 8-Methyl-6-(1-methyl-6-oxo-piperidin-3-yloxy)-2-thieno[3,2-c]pyridin-6-yl-3H-quinazolin-4-one] | ≤ 100 | 90 to 110
Cc1cc(O[C@@H](C)C2CCOCC2)cc2c(=O)[nH]c(-c3cc4ccsc4cn3)nc12 [Compound 110-S, S-8-Methyl-6-[1-(tetrahydro-pyran-4-yl)-ethoxy]-2-thieno[2,3-c]pyridin-5-yl-3H-quinazolin-4-one] | ≤ 100 | 150 to 180
Cc1cc(CC(=O)N2CCCOCC2)cc2c(=O)[nH]c(-c3cc4ccsc4cn3)nc12 [Compound 138, 8-Methyl-6-[2-(1,4-oxazepan-4-yl)-2-oxo-ethyl]-2-thieno[2,3-c]pyridin-5-yl-3H-quinazolin-4-one] | ≤ 100 | 215 to 220
Cc1cc(O[C@H]2CCN(C(=O)OCc3ccccc3)C2)cc2c(=O)[nH]c(-c3cc4sccc4cn3)nc12 [Compound 141, Benzyl (3S)-3-[(8-methyl-4-oxo-2-thieno[3,2-c]pyridin-6-yl-3H-quinazolin-6-yl)oxy]pyrrolidine-1-carboxylate] | 100 to 1000 | 224 to 227
Cc1cccc(-c2nc3ccc(OCCCc4ccncc4)cc3c(=O)[nH]2)n1 (as salt: hydrochloride) [Compound 12, 2-(6-methyl-2-pyridyl)-6-[3-(4-pyridyl)propoxy]-3H-quinazolin-4-one dihydrochloride] | – | > 250
Cc1cc(CCN2CC3CCC(C2)O3)cc2c(=O)[nH]c(-c3cc(C(F)(F)F)ccn3)nc12.Cl [Compound 162, 6-(2-(8-Oxa-3-azabicyclo[3.2.1]octan-3-yl)ethyl)-8-methyl-2-(4-(trifluoromethyl)pyridin-2-yl)quinazolin-4(3H)-one hydrochloride] | ≤ 100 | 160 to 170
COC1CCN(Cc2cc(C)c3nc(-c4cc5sccc5cn4)[nH]c(=O)c3c2)CC1 (as salt: hydrochloride) [Compound 152, 6-[(4-Methoxy-1-piperidyl)methyl]-8-methyl-2-thieno[3,2-c]pyridin-6-yl-3H-quinazolin-4-one hydrochloride] | – | 205 to 215
O=c1[nH]c(-c2cc(Cl)ccn2)nc2ccc(OCCCc3ccncc3)cc12 (as salt: hydrochloride) [Compound 15, 2-(4-chloro-2-pyridyl)-6-[3-(4-pyridyl)propoxy]-3H-quinazolin-4-one hydrochloride] | – | 232 to 241
Cc1cc(CN2CCC(C(=O)N(C)C)CC2)cc2c(=O)[nH]c(-c3cc4sccc4cn3)nc12 (as salt: hydrochloride) [Compound 156, N,N-Dimethyl-14(8-methyl-4-oxo-2-(thieno[3,2-c]pyridin-6-yl)-3,4-dihydroquinazolin-6-yl)methyl)piperidine-4-carboxamide hydrochloride] | – | 215 to 230
O=c1[nH]c(-c2cccc(C(F)(F)F)n2)nc2ccc(OCCCc3ccncc3)cc12 (as salt: hydrochloride) [Compound 17, 6-[3-(4-pyridyl)propoxy]-2-[6-(trifluoromethyl)-2-pyridyl]-3H-quinazolin-4-one hydrochloride] | – | 238 to 250
Cc1cc(CCN2CCOCC2)cc2c(=O)[nH]c(-c3cc4cccn4cn3)nc12 (as salt: hydrochloride) [Compound 124, 8-Methyl-6-(2-morpholin-4-yl-ethyl)-2-pyrrolo[1,2-c]pyrimidin-3-yl-3H-quinazolin-4-one hydrochloride] | – | > 250
Cc1cc(CN2CCOC(C)(C)C2)cc2c(=O)[nH]c(-c3cc4sccc4cn3)nc12 (as salt: hydrochloride) [Compound 153, 6-[(2,2-Dimethylmorpholin-4-yl)methyl]-8-methyl-2-thieno[3,2-c]pyridin-6-yl-3H-quinazolin-4-one hydrochloride] | – | 220 to 240
Cl.O=c1[nH]c(-c2cc3ccsc3cn2)nc2ccc(OCCCc3ccncc3)cc12 [Compound 4] | – | > 250
Cc1cc(CCN2CCOCC2)nc2c(=O)[nH]c(-c3cc(C(F)(F)F)ccn3)nc12.Cl | – | 168 to 173
Cc1cc(CCN2CCOCC2)cc2c(=O)[nH]c(-c3cc(C(F)(F)F)ccn3)nc12 (as salt: hydrochloride) [Compound 117, 8-methyl-6-(2-morpholinoethyl)-2-[4-(trifluoromethyl)-2-pyridyl]-3H-quinazolin-4-one hydrochloride] | – | > 250
Cc1cc(CN2CCN(C)CC2)cc2c(=O)[nH]c(-c3cc4ccsc4cn3)nc12 (as salt: hydrochloride) [Compound 132, 8-Methyl-6-[(4-methylpiperazin-1-yl)methyl]-2-thieno[2,3-c]pyridin-5-yl-3H-quinazolin-4-one dihydrochloride] | – | > 250
Cc1cnc(-c2nc3ccc(OCCCc4ccncc4)cc3c(=O)[nH]2)cn1 (as salt: hydrochloride) [Compound 13, 2-(5-methylpyrazin-2-yl)-6-[3-(4-pyridyl)propoxy]-3H-quinazolin-4-one dihydrochloride] | – | > 250
COCC1CCN(Cc2cc(C)c3nc(-c4cc5sccc5cn4)[nH]c(=O)c3c2)CC1 (as salt: hydrochloride) [Compound 157, 6-((4-(Methoxymethyl)piperidin-1-yl)methyl)-8-methyl-2-(thieno[3,2-c]pyridin-6-yl)quinazolin-4(3H)-one hydrochloride] | – | 200 to 210
O=c1[nH]c(-c2cc(C(F)(F)F)ccn2)nc2c(Cl)cc(CCN3CCOCC3)cc12 (as salt: hydrochloride) [Compound 154, 8-Chloro-6-(2-morpholinoethyl)-2-(4-(trifluoromethyl)pyridin-2-yl)quinazolin-4(3H)-one hydrochloride] | – | > 250
Cc1cc(CN2CCOCC2)cc2c(=O)[nH]c(-c3cc(C(F)(F)F)ccn3)nc12 (as salt: hydrochloride) [Compound 115, 8-methyl-6-(morpholinomethyl)-2-[4-(trifluoromethyl)-2-pyridyl]-3H-quinazolin-4-one hydrochloride] | – | > 250
Cc1nc(-c2nc3ccc(OCCCc4ccncc4)cc3c(=O)[nH]2)co1 (as salt: hydrochloride) [Compound 22, 2-(2-Methyl-oxazol-4-yl)-6-(3-pyridin-4-yl-propoxy)-3H-quinazolin-4-one hydrochloride] | – | > 250
O=c1[nH]c(-c2cc(C3CC3)ccn2)nc2ccc(OCCCc3ccncc3)cc12 (as salt: hydrochloride) [Compound 19, 2-(4-cyclopropyl-2-pyridyl)-6-[3-(4-pyridyl)propoxy]-3H-quinazolin-4-one dihydrochioride] | – | 110 to 156
